Test results: US20250134874A1, “PHARMACEUTICAL FORMULATIONS COMPRISING 3-({[(4R)-7-{METHYL[4-(PROPAN-2-YL)PHENYL]AMINO}-3,4-DIHYDRO-2H-1-BENZOPYRAN-4-YL]METHYL}AMINO)PYRIDINE-4-CARBOXYLIC ACID” (TACHYON THERAPEUTICS, INC., priority 2021, published 2025)

Tested on: 301 cancer cell lines from different tumor types (OncoPanel; HD Biosciences)
Assay: 2D cell viability inhibition assay (CellTiter-Glo) in cancer cell line panel
Assay type: cell-based
Settings: Homo sapiens
Protocol: In a larger screening study, compound 1 was evaluated across a broad cancer cell line panel (OncoPanel; HD Biosciences) composed of 301 cancer cell lines from different tumor types.
2D cell viability inhibition assays were performed in multiwell plates seeded with cells from the panel. After seeding, the plates were cultured overnight in a humidified incubator at 37° C. to promote adherence. Assays were initiated in individual wells by adding either DMSO as a vehicle control, growth media as a blank, or serially diluted compound 1 (10 μM to 0.0005 μM with 1:3 serial dilution). Cultures were incubated for 168 hours after which the number of viable cells in each test well was assessed using the CellTiter-Glo® Luminescent Cell Viability Assay. Luminescence readouts were performed using an EnVision® Multilabel Reader and the compound 1 readouts were normalized to the DMSO control readouts, expressed as a percent of the control. Outliers were flagged out by visual inspection. Percent of control was plotted against the corresponding compound 1 concentration and the absolute IC50 value was determined using four-parameter logistic non-linear regression as the concentration where inhibition was 50% of the control. For maximum inhibition <50%, the absolute IC50 was reported as >10. In addition to EC50 and IC50, AUC was determined and was normalized to the area corresponding to theoretical no-inhibition (the rectangular area defined by the compound dose range and 0 to 100 in y). Emax was recorded as the minimum in y with the compound dose range. For those cell lines where Emax>40, EC50 was manually set to 10 μM. A hierarchical clustering algorithm based on Euclidean distance between the standardized input values and “Ward.D” method as implemented in R hclust function was used to visualize the compound 1 cellular potency data. The sensitive/moderate/resistant calls for each cell line was determined by visually inspecting the resulting clustering dendrogram. All the analyses were done in R Core Team.

[1] = Detroit 562, DETROIT562 cell line
[2] = Granta-519, GRANTA519 cell line
[3] = KARPAS-422, KARPAS422 cell line

Question: How did the IC50 (Calu-6, CALU6 cell line) turn out when `CC(C)c1ccc(N(C)c2ccc3c(c2)OCC[C@H]3CNc2cnccc2C(=O)O)cc1` [Compound 1, 3-({[(4R)-7-{methyl[4-(propan-2-yl)phenyl]amino}-3,4-dihydro-2H-1-benzopyran-4-yl]methyl}amino)pyridine-4-carboxylic acid] was run?
Answer: 14.9 nM

Question: What about the EC50 (Caov-3, CAOV3 cell line) of the same compound?
Answer: 5.25 nM

Question: What about the IC50 (Caov-3, CAOV3 cell line) of the same compound?
Answer: 6.47 nM

Question: What about the IC50 (Capan-2, 168 h, CAPAN2, pancreas, ductal carcinoma, 168 hours) of the same compound?
Answer: > 10000 nM

Question: And the EC50 (DLD-1, DLD1 cell line)?
Answer: 1.47 nM

Question: And the IC50 (DLD-1, DLD1 cell line)?
Answer: 2.53 nM

Question: And the IC50 (DMS-53, 168 h, DMS53, lung, small cell carcinoma, 168 hours)?
Answer: > 10000 nM

Question: What about the EC50 (DMS-79, DMS79 cell line) of the same compound?
Answer: 1.28 nM

Question: What about the IC50 (DMS-79, DMS79 cell line) of the same compound?
Answer: 3.47 nM

Question: And the IC50 (DMS-153, DMS153 cell line)?
Answer: > 10000 nM

Question: What about the EC50 (DMS-273, DMS273 cell line) of the same compound?
Answer: 16.3 nM

Question: What about the IC50 (DMS-273, DMS273 cell line) of the same compound?
Answer: 22.2 nM

Question: And the EC50 (DU-145, DU145 cell line)?
Answer: 16.6 nM

Question: What about the IC50 (DU-145, DU145 cell line) of the same compound?
Answer: 17.7 nM

Question: And the EC50 (DV-90, DV90 cell line)?
Answer: 5.36 nM

Question: And the IC50 (DV-90, DV90 cell line)?
Answer: 7.36 nM

Question: And the IC50 (Daoy, 168 h, central nervous system, NS)?
Answer: > 10000 nM

Question: What about the EC50 (Daudi, DAUDI cell line) of the same compound?
Answer: 13.4 nM

Question: And the IC50 (Daudi, DAUDI cell line)?
Answer: 14.9 nM

Question: And the EC50 [1]?
Answer: 10.4 nM

Question: And the IC50 [1]?
Answer: 16.7 nM

Question: What about the EC50 (FTC-133, FTC133 cell line) of the same compound?
Answer: 4.28 nM

Question: What about the IC50 (FTC-133, FTC133 cell line) of the same compound?
Answer: 7.49 nM

Question: What about the IC50 (G-361, 168 h, G361, skin, NS, 168 hours) of the same compound?
Answer: > 10000 nM

Question: And the EC50 (G-401, G401 cell line)?
Answer: 4.39 nM

Question: What about the IC50 (G-401, G401 cell line) of the same compound?
Answer: 4.45 nM

Question: And the EC50 (GI-1, GI1 cell line)?
Answer: 295 nM

Question: What about the IC50 (GI-1, GI1 cell line) of the same compound?
Answer: 287 nM

Question: And the EC50 [2]?
Answer: 14.9 nM

Question: What about the IC50 [2] of the same compound?
Answer: 17.6 nM

Question: And the IC50 (HCC38, 168 h, HCC38, breast, ductal carcinoma, 168 hours)?
Answer: > 10000 nM

Question: And the EC50 (HCC70, HCC70 cell line)?
Answer: 8.56 nM

Question: And the IC50 (HCC70, HCC70 cell line)?
Answer: 11 nM

Question: And the EC50 (HCC78, HCC78 cell line)?
Answer: 12.7 nM

Question: And the IC50 (HCC78, HCC78 cell line)?
Answer: 23.9 nM

Question: And the EC50 (HCC95, HCC95 cell line)?
Answer: 3.34 nM

Question: What about the IC50 (HCC95, HCC95 cell line) of the same compound?
Answer: 4.4 nM

Question: What about the IC50 (HCC827, 168 h, HCC827, lung, adenocarcinoma, 168 hours) of the same compound?
Answer: > 10000 nM

Question: What about the IC50 (HCC1143, HCC1143 cell line) of the same compound?
Answer: > 10000 nM

Question: And the EC50 (HCC1187, HCC1187 cell line)?
Answer: 3.1 nM

Question: What about the IC50 (HCC1187, HCC1187 cell line) of the same compound?
Answer: 6.51 nM

Question: What about the IC50 (HCC1419, 168 h, HCC1419, breast, ductal carcinoma, 168 hours) of the same compound?
Answer: > 10000 nM

Question: What about the IC50 (HCC1428, 168 h, HCC1428, breast, NS, 168 hours) of the same compound?
Answer: > 10000 nM

Question: What about the EC50 (HCC1599, HCC1599 cell line) of the same compound?
Answer: 3.82 nM

Question: And the IC50 (HCC1599, HCC1599 cell line)?
Answer: 5.64 nM

Question: And the EC50 (HCC1806, HCC1806 cell line)?
Answer: 5.13 nM

Question: And the IC50 (HCC1806, HCC1806 cell line)?
Answer: 13 nM

Question: What about the IC50 (HCC1937, 168 h, HCC1937, breast, ductal carcinoma, 168 hours) of the same compound?
Answer: > 10000 nM

Question: And the IC50 (HCC1954, HCC1954 cell line)?
Answer: 40.6 nM

Question: What about the IC50 (HCC2935, HCC2935 cell line) of the same compound?
Answer: > 10000 nM

Question: And the EC50 (HCT-15, HCT15 cell line)?
Answer: 1.47 nM

Question: And the IC50 (HCT-15, HCT15 cell line)?
Answer: 1.79 nM

Question: What about the EC50 (HCT-116, HCT116 cell line) of the same compound?
Answer: 4.99 nM

Question: And the IC50 (HCT-116, HCT116 cell line)?
Answer: 20.4 nM

Question: And the EC50 (HEL, HEL cell line)?
Answer: 3.6 nM

Question: What about the IC50 (HEL, HEL cell line) of the same compound?
Answer: 11.7 nM

Question: What about the EC50 (HL-60, HL60 cell line) of the same compound?
Answer: 8.12 nM

Question: What about the IC50 (HL-60, HL60 cell line) of the same compound?
Answer: 9.32 nM

Question: And the EC50 (HLE, HLE cell line)?
Answer: 10.4 nM

Question: What about the IC50 (HLE, HLE cell line) of the same compound?
Answer: 11.3 nM

Question: And the EC50 (HMCB, HMCB cell line)?
Answer: 0.815 nM

Question: And the IC50 (HMCB, HMCB cell line)?
Answer: 11.1 nM

Question: And the EC50 (HPAC, HPAC cell line)?
Answer: 2.38 nM

Question: And the IC50 (HPAC, HPAC cell line)?
Answer: 3.93 nM

Question: And the EC50 (HSC-2, HSC2 cell line)?
Answer: 5.09 nM

Question: And the IC50 (HSC-2, HSC2 cell line)?
Answer: 7.99 nM

Question: What about the IC50 (HSC-3, HSC3 cell line) of the same compound?
Answer: 60.3 nM

Question: And the EC50 (HSC-4, HSC4 cell line)?
Answer: 4.33 nM

Question: What about the IC50 (HSC-4, HSC4 cell line) of the same compound?
Answer: 6.95 nM

Question: What about the EC50 (HT55, HT55 cell line) of the same compound?
Answer: 12.7 nM

Question: And the IC50 (HT55, HT55 cell line)?
Answer: 14.2 nM

Question: What about the EC50 (HT-29, HT29 cell line) of the same compound?
Answer: 22.8 nM

Question: And the IC50 (HT-29, HT29 cell line)?
Answer: 37 nM

Question: What about the IC50 (HT-144, 168 h, HT144, skin, NS, 168 hours) of the same compound?
Answer: > 10000 nM

Question: What about the EC50 (HT-1080, HT1080 cell line) of the same compound?
Answer: 12.8 nM

Question: And the IC50 (HT-1080, HT1080 cell line)?
Answer: 14.1 nM

Question: What about the EC50 (HT-1376, HT1376 cell line) of the same compound?
Answer: 17.9 nM

Question: What about the IC50 (HT-1376, HT1376 cell line) of the same compound?
Answer: 36.3 nM

Question: What about the EC50 (HepG2, HEPG2 cell line) of the same compound?
Answer: ≥ 10000 nM

Question: What about the IC50 (HepG2, HEPG2 cell line) of the same compound?
Answer: 52.1 nM

Question: What about the EC50 (Hs 294T, HS294T cell line) of the same compound?
Answer: 30.7 nM

Question: What about the IC50 (Hs 294T, HS294T cell line) of the same compound?
Answer: 66.8 nM

Question: What about the IC50 (Hs 695T, 168 h, HS695T, skin, NS) of the same compound?
Answer: > 10000 nM

Question: What about the EC50 (Hs-578T, HS578T cell line) of the same compound?
Answer: 6.9 nM

Question: And the IC50 (Hs-578T, HS578T cell line)?
Answer: 13.9 nM

Question: What about the EC50 (HuH-1, HUH1 cell line) of the same compound?
Answer: 10.6 nM

Question: And the IC50 (HuH-1, HUH1 cell line)?
Answer: 11.8 nM

Question: And the EC50 (HuTu80, HUTU80 cell line)?
Answer: 4.21 nM

Question: What about the IC50 (HuTu80, HUTU80 cell line) of the same compound?
Answer: 4.36 nM

Question: What about the EC50 (Huh-7, HUH7 cell line) of the same compound?
Answer: 12.9 nM

Question: What about the IC50 (Huh-7, HUH7 cell line) of the same compound?
Answer: 14 nM

Question: What about the IC50 (J82, J82 cell line) of the same compound?
Answer: > 10000 nM

Question: And the EC50 (JIMT-1, JIMT1 cell line)?
Answer: 46.6 nM

Question: And the IC50 (JIMT-1, JIMT1 cell line)?
Answer: 61.9 nM

Question: What about the EC50 (JeKo-1, JEKO1 cell line) of the same compound?
Answer: 2.31 nM

Question: What about the IC50 (JeKo-1, JEKO1 cell line) of the same compound?
Answer: 1.8 nM

Question: And the EC50 (Jurkat, JURKAT cell line)?
Answer: 1.66 nM

Question: What about the IC50 (Jurkat, JURKAT cell line) of the same compound?
Answer: 1.49 nM

Question: What about the EC50 (K562, K562 cell line) of the same compound?
Answer: 4.08 nM

Question: And the IC50 (K562, K562 cell line)?
Answer: 4.56 nM

Question: What about the IC50 (KALS-1, KALS1 cell line) of the same compound?
Answer: > 10000 nM

Question: And the EC50 [3]?
Answer: 5.42 nM

Question: And the IC50 [3]?
Answer: 6.53 nM

Question: And the EC50 (KATO III, KATOIII cell line)?
Answer: 40.4 nM

Question: And the IC50 (KATO III, KATOIII cell line)?
Answer: 43.8 nM

Question: And the EC50 (KM12, KM12 cell line)?
Answer: 6.3 nM

Question: And the IC50 (KM12, KM12 cell line)?
Answer: 7.34 nM

Question: What about the EC50 (KMS-11, KMS11 cell line) of the same compound?
Answer: 10.9 nM

Question: What about the IC50 (KMS-11, KMS11 cell line) of the same compound?
Answer: 12.2 nM

Question: And the EC50 (KNS-62, KNS62 cell line)?
Answer: 12.4 nM

Question: And the IC50 (KNS-62, KNS62 cell line)?
Answer: 14.9 nM

Question: What about the EC50 (KU-19-19, KU1919 cell line) of the same compound?
Answer: 8.77 nM

Question: What about the IC50 (KU-19-19, KU1919 cell line) of the same compound?
Answer: 10.3 nM
